Measurements from ChEMBL document CHEMBL5543147, “Discovery and Characterization of a Novel Cereblon-Recruiting PRC1 Bridged PROTAC Degrader” (J Med Chem, 2024).
Calls of active or inactive are those of the source. The calls are words filed in the database; no cut-off is given here.

Columns and labels:
Assay type in all cases: cell-based
Conditions in all cases: dose 0.1-10 µM
[1] = biological target: Protein cereblon/Histone-lysine N-methyltransferase EZH2 (Homo sapiens) (UniProt Q15910+Q96SW2); assay: PROTAC activity at CRBN/EZH2 in human K562 cells assessed as degradation of EZH2 protein expression at 0.1 to 10 uM incubated for 24 hrs by Western blotting analysis
[2] = biological target: Protein cereblon/Polycomb protein SUZ12 (Homo sapiens) (UniProt Q15022+Q96SW2); assay: PROTAC activity at CRBN/SUZ12 in human K562 cells assessed as degradation of SUZ12 protein expression at 0.1 to 10 uM incubated for 24 hrs by Western blotting analysis
[3] = test system: K562; assay: Induction of PRC2 degradation in human K562 cells assessed as reduction of H3K27me3 chromatin mark at 0.1 to 10 uM incubated for 24 hrs by Western blotting analysis
[4] = test system: K562; assay: Induction of PRC1 degradation in human K562 cells assessed as reduction of H2AK119ub chromatin mark at 0.1 to 10 uM incubated for 24 hrs by Western blotting analysis
[5] = biological target: Protein cereblon/Polycomb complex protein BMI-1 (Homo sapiens, UniProt Q96SW2+P35226); assay: PROTAC activity at […] in human K562 cells assessed as degradation of BMI1 protein expression at 0.1 to 10 uM incubated for 24 hrs by Western blotting analysis
[6] = biological target: Protein cereblon/E3 ubiquitin-protein ligase RING2 (Homo sapiens, UniProt Q96SW2+Q99496); assay: PROTAC activity at CRBN/RING1B in human K562 cells assessed as degradation of RING1B protein expression at 0.1 to 10 uM incubated for 24 hrs by Western blotting analysis
[7] = biological target: Protein cereblon/Polycomb protein EED (Homo sapiens, UniProt O75530+Q96SW2); assay: PROTAC activity at CRBN/EED in human K562 cells assessed as degradation of EED protein expression at 0.1 to 10 uM incubated for 24 hrs by Western blotting analysis
Protein cereblon/Polycomb protein EED, sequence (O75530 2-441 limits assumed): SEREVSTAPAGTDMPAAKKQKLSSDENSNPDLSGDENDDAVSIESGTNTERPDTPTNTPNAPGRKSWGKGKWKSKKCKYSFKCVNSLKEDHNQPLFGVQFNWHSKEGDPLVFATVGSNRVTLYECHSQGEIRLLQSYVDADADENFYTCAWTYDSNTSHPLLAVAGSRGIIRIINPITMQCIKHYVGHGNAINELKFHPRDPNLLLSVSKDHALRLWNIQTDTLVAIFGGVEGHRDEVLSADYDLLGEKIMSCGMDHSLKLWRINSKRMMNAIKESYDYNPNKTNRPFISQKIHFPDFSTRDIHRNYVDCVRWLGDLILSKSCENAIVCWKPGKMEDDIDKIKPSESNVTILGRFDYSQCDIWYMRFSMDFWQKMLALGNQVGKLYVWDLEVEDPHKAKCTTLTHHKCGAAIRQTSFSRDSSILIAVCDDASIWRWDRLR
Protein cereblon/Polycomb protein EED, sequence (Q96SW2 whole entry partner): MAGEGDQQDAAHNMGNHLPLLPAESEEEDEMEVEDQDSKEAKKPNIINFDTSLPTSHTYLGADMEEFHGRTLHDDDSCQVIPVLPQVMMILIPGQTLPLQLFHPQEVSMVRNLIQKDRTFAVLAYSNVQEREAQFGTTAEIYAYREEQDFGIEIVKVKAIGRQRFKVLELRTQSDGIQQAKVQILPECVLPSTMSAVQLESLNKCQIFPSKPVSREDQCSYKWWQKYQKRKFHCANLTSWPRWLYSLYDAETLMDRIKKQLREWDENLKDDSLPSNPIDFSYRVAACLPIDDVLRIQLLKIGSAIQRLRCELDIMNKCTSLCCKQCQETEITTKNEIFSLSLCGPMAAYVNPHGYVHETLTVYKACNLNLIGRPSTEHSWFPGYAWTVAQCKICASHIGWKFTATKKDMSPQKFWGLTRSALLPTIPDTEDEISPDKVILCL

Protein cereblon/Polycomb protein SUZ12 (Homo sapiens), sequence (Q15022 whole entry, looked up): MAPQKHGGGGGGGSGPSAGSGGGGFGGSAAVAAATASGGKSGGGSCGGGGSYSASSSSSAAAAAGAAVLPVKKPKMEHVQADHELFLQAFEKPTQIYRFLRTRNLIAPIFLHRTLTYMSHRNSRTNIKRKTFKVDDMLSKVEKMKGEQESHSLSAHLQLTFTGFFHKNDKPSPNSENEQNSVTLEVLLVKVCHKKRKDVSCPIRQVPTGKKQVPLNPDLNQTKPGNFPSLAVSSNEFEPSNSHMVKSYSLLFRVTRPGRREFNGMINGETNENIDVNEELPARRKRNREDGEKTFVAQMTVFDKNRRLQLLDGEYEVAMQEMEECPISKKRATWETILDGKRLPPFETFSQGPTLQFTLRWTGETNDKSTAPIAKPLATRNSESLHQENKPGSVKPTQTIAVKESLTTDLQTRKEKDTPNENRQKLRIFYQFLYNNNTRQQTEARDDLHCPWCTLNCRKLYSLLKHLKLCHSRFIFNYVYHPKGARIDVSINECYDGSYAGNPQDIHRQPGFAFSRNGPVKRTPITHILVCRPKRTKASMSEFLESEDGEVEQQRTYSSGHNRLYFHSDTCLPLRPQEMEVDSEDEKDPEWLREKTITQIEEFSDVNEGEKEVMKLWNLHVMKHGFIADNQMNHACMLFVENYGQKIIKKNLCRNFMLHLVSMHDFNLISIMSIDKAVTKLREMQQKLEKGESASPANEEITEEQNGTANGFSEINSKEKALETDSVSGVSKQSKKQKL
Protein cereblon/Polycomb protein SUZ12 (Homo sapiens), sequence (Q96SW2 whole entry, looked up): as the sequence (Q96SW2 whole entry partner) above
Protein cereblon/Histone-lysine N-methyltransferase EZH2 (Homo sapiens), sequence (Q15910 whole entry, looked up): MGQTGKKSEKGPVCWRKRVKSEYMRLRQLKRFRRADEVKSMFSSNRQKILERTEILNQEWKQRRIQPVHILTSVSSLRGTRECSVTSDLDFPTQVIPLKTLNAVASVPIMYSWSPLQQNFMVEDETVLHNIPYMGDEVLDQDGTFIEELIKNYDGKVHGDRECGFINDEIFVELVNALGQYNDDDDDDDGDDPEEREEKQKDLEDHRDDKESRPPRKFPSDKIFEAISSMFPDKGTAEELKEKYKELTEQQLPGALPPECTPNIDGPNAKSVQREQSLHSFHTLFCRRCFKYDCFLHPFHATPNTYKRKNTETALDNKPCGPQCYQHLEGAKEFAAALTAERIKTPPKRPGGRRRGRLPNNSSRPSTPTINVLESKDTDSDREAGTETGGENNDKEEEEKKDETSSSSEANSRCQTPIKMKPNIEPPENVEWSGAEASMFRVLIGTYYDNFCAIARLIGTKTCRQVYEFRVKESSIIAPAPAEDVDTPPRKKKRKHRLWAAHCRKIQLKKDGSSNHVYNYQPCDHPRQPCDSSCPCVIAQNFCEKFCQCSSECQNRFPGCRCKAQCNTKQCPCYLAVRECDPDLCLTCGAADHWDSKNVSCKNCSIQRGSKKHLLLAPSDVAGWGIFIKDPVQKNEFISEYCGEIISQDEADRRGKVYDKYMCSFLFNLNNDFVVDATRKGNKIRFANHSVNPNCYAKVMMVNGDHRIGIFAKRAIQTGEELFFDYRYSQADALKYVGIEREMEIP
Protein cereblon/Histone-lysine N-methyltransferase EZH2 (Homo sapiens), sequence (Q96SW2 whole entry, looked up): as the sequence (Q96SW2 whole entry partner) above
Protein cereblon/Polycomb complex protein BMI-1, sequence (P35226 whole entry, looked up): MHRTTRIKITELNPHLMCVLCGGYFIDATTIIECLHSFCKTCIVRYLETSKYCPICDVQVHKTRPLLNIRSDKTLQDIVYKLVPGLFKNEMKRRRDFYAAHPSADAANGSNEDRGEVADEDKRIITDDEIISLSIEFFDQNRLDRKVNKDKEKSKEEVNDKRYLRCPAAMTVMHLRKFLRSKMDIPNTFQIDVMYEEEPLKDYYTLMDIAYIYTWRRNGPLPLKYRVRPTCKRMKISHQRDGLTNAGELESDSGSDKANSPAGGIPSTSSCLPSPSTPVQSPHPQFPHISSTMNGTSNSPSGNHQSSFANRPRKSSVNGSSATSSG
Protein cereblon/Polycomb complex protein BMI-1, sequence (Q96SW2 whole entry, looked up): as the sequence (Q96SW2 whole entry partner) above
Protein cereblon/E3 ubiquitin-protein ligase RING2, sequence (Q96SW2 whole entry): as the sequence (Q96SW2 whole entry partner) above
Protein cereblon/E3 ubiquitin-protein ligase RING2, sequence (Q99496 2-336 partner limits assumed): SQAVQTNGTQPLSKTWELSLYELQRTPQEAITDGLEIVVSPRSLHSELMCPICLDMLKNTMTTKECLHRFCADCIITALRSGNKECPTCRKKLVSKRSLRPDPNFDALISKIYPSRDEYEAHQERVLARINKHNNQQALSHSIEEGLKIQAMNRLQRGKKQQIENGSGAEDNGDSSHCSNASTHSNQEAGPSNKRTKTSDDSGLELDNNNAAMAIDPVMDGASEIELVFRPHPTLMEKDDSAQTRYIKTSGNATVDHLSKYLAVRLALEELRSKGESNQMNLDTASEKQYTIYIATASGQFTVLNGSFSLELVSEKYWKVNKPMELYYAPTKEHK

SMILES | Activity [1] | Activity [2] | Activity [5] | Activity [6] | Activity [7] | Activity [3] | Activity [4]
O=C(CCCCCNc1cccc2c1C(=O)N(C1CCC(=O)NC1=O)C2=O)NCCCCN1CCN(c2ccc(-c3cnc(NCc4ccco4)n4cnnc34)cc2)CC1 (stereo unspecified) | inactive | inactive | inactive | inactive | inactive | inactive | inactive
O=C(CCOCCOCCNc1cccc2c1C(=O)N(C1CCC(=O)NC1=O)C2=O)NCCCCN1CCN(c2ccc(-c3cnc(NCc4ccco4)n4cnnc34)cc2)CC1 (stereo unspecified) | Active | Active | inactive | inactive | Active | Active | inactive
O=C(CCCNc1cccc2c1C(=O)N(C1CCC(=O)NC1=O)C2=O)NCCCCN1CCN(c2ccc(-c3cnc(NCc4ccco4)n4cnnc34)cc2)CC1 (stereo unspecified) | inactive | inactive | inactive | inactive | inactive | inactive | inactive
O=C(CCOCCOCCOCCNc1cccc2c1C(=O)N(C1CCC(=O)NC1=O)C2=O)NCCCCN1CCN(c2ccc(-c3cnc(NCc4ccco4)n4cnnc34)cc2)CC1 (stereo unspecified) | inactive | inactive | inactive | inactive | inactive | inactive | inactive
O=C(CCNc1cccc2c1C(=O)N(C1CCC(=O)NC1=O)C2=O)NCCCCN1CCN(c2ccc(-c3cnc(NCc4ccco4)n4cnnc34)cc2)CC1 (stereo unspecified) | inactive | inactive | inactive | inactive | inactive | inactive | inactive

Further lines, with some results ahead:

Activity [1] | Activity [2] | Activity [5] | Activity [6] | Activity [7] | SMILES | Activity [3] | Activity [4]
inactive | inactive | inactive | inactive | inactive | O=C(CCOCCOCCOCCOCCNc1cccc2c1C(=O)N(C1CCC(=O)NC1=O)C2=O)NCCCCN1CCN(c2ccc(-c3cnc(NCc4ccco4)n4cnnc34)cc2)CC1 (stereo unspecified) | inactive | inactive
inactive | inactive | inactive | inactive | inactive | O=C(CCOCCNc1cccc2c1C(=O)N(C1CCC(=O)NC1=O)C2=O)NCCCCN1CCN(c2ccc(-c3cnc(NCc4ccco4)n4cnnc34)cc2)CC1 (stereo unspecified) | inactive | inactive
inactive | inactive | inactive | inactive | inactive | O=C(CCCCNc1cccc2c1C(=O)N(C1CCC(=O)NC1=O)C2=O)NCCCCN1CCN(c2ccc(-c3cnc(NCc4ccco4)n4cnnc34)cc2)CC1 (stereo unspecified) | inactive | inactive
